The record followed here is ChEMBL document CHEMBL4376858, “Structure-Activity Relationships of Novel Thiazole-Based Modafinil Analogues Acting at Monoamine Transporters” (J Med Chem, 2020).

Data set [1] deals with Sodium-dependent dopamine transporter (Homo sapiens, UniProt Q01959). The data set can be described thus: Inhibition of wild type human dopamine transporter expressed in HEK293 cells assessed as inhibition of [3H]dopamine reuptake preincubated for 5 mins followed by [3H]dopamine addition and measured after 1 min by liquid scintillation analysis. Format: cell-based. The settings on record: read-out: IC50.
Chain of Sodium-dependent dopamine transporter (Q01959 whole entry): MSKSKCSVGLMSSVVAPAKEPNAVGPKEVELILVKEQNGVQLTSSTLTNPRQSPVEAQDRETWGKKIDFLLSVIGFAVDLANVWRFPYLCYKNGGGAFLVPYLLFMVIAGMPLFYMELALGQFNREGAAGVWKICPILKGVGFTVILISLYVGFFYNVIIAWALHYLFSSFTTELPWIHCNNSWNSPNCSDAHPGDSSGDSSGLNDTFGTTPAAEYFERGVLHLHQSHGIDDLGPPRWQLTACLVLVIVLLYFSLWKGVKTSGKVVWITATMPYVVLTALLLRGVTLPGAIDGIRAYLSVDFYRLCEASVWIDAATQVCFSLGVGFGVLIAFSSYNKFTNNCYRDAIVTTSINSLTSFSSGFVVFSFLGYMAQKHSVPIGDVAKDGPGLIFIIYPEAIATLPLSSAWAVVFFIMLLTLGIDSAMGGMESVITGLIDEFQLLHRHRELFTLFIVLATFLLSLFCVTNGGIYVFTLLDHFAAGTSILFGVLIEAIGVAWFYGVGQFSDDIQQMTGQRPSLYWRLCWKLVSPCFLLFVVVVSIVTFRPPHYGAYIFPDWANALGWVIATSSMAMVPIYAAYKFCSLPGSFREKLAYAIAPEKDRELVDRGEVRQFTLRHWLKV

Data set [2] is described as follows: AUC(0 to infinity) in Sprague-Dawley rat at 10 mg/kg, ip compound dissolved in DMSO/Tween 80/Saline by HPLC-MS analysis. Format: ADME, organism-based. More on the design: dose 10 mg/kg, time infinity, route intraperitoneal. Conditions: in vivo; call rule not given here.
Data set [3] in a line: Half life in Sprague-Dawley rat at 10 mg/kg, ip compound dissolved in DMSO/Tween 80/Saline by HPLC-MS analysis. Format: ADME, organism-based. The settings on record: in vivo.
Data set [4] is described as follows: Plasma concentration in Sprague-Dawley rat at 10 mg/kg, ip compound dissolved in DMSO/Tween 80/Saline measured after 1 hr by HPLC-MS analysis. Format: ADME, organism-based.
Data set [5] has as its target T1, Sodium-dependent noradrenaline transporter (Homo sapiens, UniProt P23975). In words: Inhibition of wild type human NET expressed in HEK293 cells assessed as inhibition of [3H]-MPP+ reuptake preincubated for 5 mins followed by [3H]MPP+ addition and measured after 3 mins by liquid scintillation counting analysis. Format: cell-based. The settings on record: read-out: IC50.

Data set [6] can be described thus: Neurotoxicity in rat cortical neuron assessed as inhibition of neurite outgrowth by measuring mean neurite average length incubated for 72 hrs by Hoechst 33342 staining based ArrayScan analysis. Format: toxicity, cell-based, Cortical neurone. The settings on record: rat cortical neurons.
Data set [7] in a line: Neurotoxicity in rat cortical neuron assessed as inhibition of neurite total length per neuron incubated for 72 hrs by Hoechst 33342 staining based ArrayScan analysis. Format: toxicity, cell-based, Cortical neurone. Conditions: rat cortical neurons.
The test system of the next data set is Cortical neurone. In words: Cytotoxicity in rat cortical neuron assessed as inhibition of cell viability incubated for 72 hrs by Hoechst 33342 staining based ArrayScan analysis.
A short description of data set [8]: Neurotoxicity in rat cortical neuron assessed as inhibition of valid neuron count incubated for 72 hrs by Hoechst 33342 staining based ArrayScan analysis. Format: toxicity, cell-based, Cortical neurone. Conditions: rat cortical neurons.
The target in data set [9] is Sodium-dependent serotonin transporter (Homo sapiens, UniProt P31645). Format: cell-based, HEK293. Conditions: hek293.
Chain of Sodium-dependent serotonin transporter (P31645 whole entry): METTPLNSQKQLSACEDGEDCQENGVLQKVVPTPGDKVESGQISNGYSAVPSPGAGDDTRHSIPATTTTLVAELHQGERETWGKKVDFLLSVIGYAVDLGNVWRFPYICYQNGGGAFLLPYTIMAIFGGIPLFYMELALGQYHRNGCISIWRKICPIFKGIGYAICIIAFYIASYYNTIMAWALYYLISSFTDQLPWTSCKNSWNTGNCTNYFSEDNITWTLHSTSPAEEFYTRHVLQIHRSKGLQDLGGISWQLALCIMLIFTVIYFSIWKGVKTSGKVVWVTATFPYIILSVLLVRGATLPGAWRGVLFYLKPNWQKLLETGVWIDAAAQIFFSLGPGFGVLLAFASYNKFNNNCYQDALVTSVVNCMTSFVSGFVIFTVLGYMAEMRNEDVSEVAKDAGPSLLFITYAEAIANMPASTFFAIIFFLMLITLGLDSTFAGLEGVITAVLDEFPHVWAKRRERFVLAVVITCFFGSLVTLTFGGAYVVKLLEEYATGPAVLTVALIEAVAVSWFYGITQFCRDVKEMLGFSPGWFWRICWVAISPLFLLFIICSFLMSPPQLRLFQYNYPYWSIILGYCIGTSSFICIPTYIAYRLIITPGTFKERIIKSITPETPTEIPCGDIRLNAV
Description: Inhibition of wild type human SERT expressed in HEK293 cells assessed as inhibition of [3H]-5HT reuptake preincubated for 5 mins followed by [3H]5HT addition and measured after 1 min by liquid scintillation counting analysis
For data set [10], the target named is T1, Sodium-dependent noradrenaline transporter. In words: Inhibition of wild type human NET expressed in HEK293 cells assessed as inhibition of [3H]-MPP+ reuptake preincubated for 8 mins followed by [3H]MPP+ addition and measured after 3 mins by liquid scintillation counting analysis. Format: cell-based.

T1 sequence (P23975 whole entry): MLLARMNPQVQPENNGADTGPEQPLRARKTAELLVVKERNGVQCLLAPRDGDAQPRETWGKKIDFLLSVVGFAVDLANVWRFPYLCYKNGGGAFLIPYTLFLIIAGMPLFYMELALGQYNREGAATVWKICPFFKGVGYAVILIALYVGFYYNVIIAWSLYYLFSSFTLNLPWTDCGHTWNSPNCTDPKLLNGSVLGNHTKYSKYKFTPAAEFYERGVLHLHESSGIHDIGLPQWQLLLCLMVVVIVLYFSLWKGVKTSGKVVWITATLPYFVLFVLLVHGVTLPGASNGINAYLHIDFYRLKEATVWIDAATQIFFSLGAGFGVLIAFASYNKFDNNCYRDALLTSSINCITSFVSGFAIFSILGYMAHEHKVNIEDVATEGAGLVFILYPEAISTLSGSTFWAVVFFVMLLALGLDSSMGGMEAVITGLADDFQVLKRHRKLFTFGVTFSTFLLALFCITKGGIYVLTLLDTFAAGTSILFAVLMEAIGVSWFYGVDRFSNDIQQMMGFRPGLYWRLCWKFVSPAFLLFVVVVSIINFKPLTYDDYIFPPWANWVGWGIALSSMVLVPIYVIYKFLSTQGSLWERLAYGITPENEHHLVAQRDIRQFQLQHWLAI

For orientation: IC50 means the point on the concentration scale where inhibition reaches its midpoint. As usually defined, the AUC(0-inf) is the area under the concentration-time curve extrapolated to infinity. As a reminder, the half-life is the time in which the quantity being followed falls by half. A lower half-life goes with fast loss. In the case of `[O-][S+](Cc1cncs1)C(c1ccccc1)c1ccccc1` (stereo unspecified), in data set [1], the IC50 is 4.61 µM. Moreover, the AUC(0-inf) in data set [2] is 13.5 µM·h. The compound also gave a half-life in data set [3] of 54 min.

`NC(=O)C[S@@+]([O-])C(c1ccccc1)c1ccccc1` [ARMODAFINIL] registered an AUC(0-inf) in data set [2] of 1.18 µM·h. Also, in data set [3], the half-life is 24 min. In data set [4], this compound yielded a concentration at 1 h of 3900 ng/mL. Also, in data set [5], the IC50 stood at 170 µM.

Regarding `COC(=O)Nc1nc2ccc(C(=O)c3cccs3)cc2[nH]1` [NOCODAZOLE], the results for the IC50 at 72 h in data set [6], in data set [7] and in data set [8] were 0.097 µM, 0.0997 µM and 2.22 µM, respectively. In the data set with Cortical neurone, the Activity result is “Toxic”.

As to `[O-][S+](Cc1nccs1)C(c1ccccc1)c1ccccc1` (stereo unspecified), the half-inhibitory concentration (IC50) was 14.7 µM in data set [1], “Not Active” in data set [9] and 420 µM in [10].

With `CN(C)CCCN1c2ccccc2Sc2ccc(Cl)cc21` [CHLORPROMAZINE], the half-inhibitory concentration (IC50) at 72 h in data set [6] came to 9.02 µM; in [7], 13.8 µM; in data set [8] it was 7.99 µM. Besides, the Activity result in the data set on Cortical neurone was “Non-Toxic”.

As for `Cc1nc(C[S+]([O-])C(c2ccccc2)c2ccccc2)cs1` (stereo unspecified), the figures for the IC50 in data set [1], in data set [9] and in data set [10] were 3.25 µM, “Not Active” and 174 µM, respectively.
